The target of one assay is T1, EGFR (Homo sapiens, UniProt P00533).
T1 construct: A431 […] cell lysate is stored at −80° C; host or cells: A431 cell lysate
Nature of the assay: Assay for modulation of EGFR activity (ELISA). In kind it is biochemical. As to conditions: read-out: bio EGFR IC50. The protocol: Using the following reagents, supplies, and method, the ability of compounds of the invention to modulate the in vitro activity of EGFR can be readily determined in an ELISA.
A431 […] cell lysate is stored at −80° C.
ATP/MnCl2 phosphorylation mix is prepared by adding 300 μL of 1.0 mM ATP and […] of 1M MnCl2 to 9.2 mL of dH2O and mixing. Ten mL of phosphorylation mix is enough for about 6 assay plates. Note that the mixture should be made fresh and kept on ice immediately before use, and that although the preferred ATP is fresh from powder stock, any remaining stock solution of ATP may be frozen at −20° C. in small aliquots to be used at a later time.
Coat Corning 96 well ELISA plates with 0.5 μg per well with SUMO1 in a volume of 100 μL PBS overnight, at 4° C. Remove unbound SUMO1 from wells by inverting plate to remove liquid. Wash 1× with distilled H2O by filling wells. Pat the plate on a paper towel to remove excess liquid.
Add 150 μL of Blocking Buffer to each well. Incubate for 30 minutes at room temperature, with shaking. Wash plate 3× with deionized water, then once with TBST. Pat plate on a paper towel to remove excess liquid and bubbles.
Dilute lysate in PBS (7 μg lysate/[…]) and add 100 μL of diluted lysate to each well. Shake at room temperature for 60 minutes. Wash 1× with distilled H2O by filling wells. Pat the plate on a paper towel to remove excess liquid.
Add 120 μL TBST to ELISA plate containing captured EGFR.
Dilute drugs/extracts 1:10 (unless specified otherwise) in TBST in 96-well polypropylene plates. (i.e., 10 μL compound+90 μL TBST). Add 13.5 μL diluted drugs/extracts to ELISA plate. […] Incubate for 30 minutes while shaking at room temperature.
Approximately 150 μL final volume in well with 3 uM ATP/5 mM MnCl2 final concentration in well. Incubate 5 minutes while shaking. Note that this is a timed event. It is critical that ATP/MnCl2 phosphorylates the receptor for only 5 minutes. It is best to add the ATP/MnCl2 with an automated 96 place pipettor workstation, then 5 minutes later stop the reaction with EDTA using the same workstation. Alternatively, addition can be performed using a 12 channel pipettor 1 row at a time, leaving 20 seconds between each row so that the reaction may be stopped with EDTA exactly 5 minutes later (this depends on the number of plates being phosphorylated in one batch). Shake between each addition.
[…] This is done using either the same work station as above, or the same timing method employed with the 12 channel pipettor. After the EDTA has been added, shake for 1 minute. Wash 4× with deionized water, twice with TBST.
Add 100 μL per well of anti-phosphotyrosine (1:3000 dilution in TBST). Incubate 30-45 minutes at room temperature, with shaking. Wash 1× with distilled H2O by filling wells. Pat the plate on a paper towel to remove excess liquid.
Incubate 30 minutes at room temperature, with shaking. Wash 1× with distilled H2O by filling wells. Pat the plate on a paper towel to remove excess liquid.
Add 100 μL of ABTS/H2O2 solution to each well. Incubate 5 to 10 minutes while shaking. Remove any bubbles. If necessary stop reaction with the addition of 100 μL of 0.2M HCl per well.
Read assay on Dynatech MR7000 ELISA reader.

A further assay has as its target T2, HER-2 (Homo sapiens, UniProt P04626).
T2 construct: expressed in mouse 3T3 (clone C7) cells; P00533 (Epidermal growth factor receptor)
Nature of the assay: Assay for modulation of HER-2 activity in whole cells (ELISA). In kind it is cell-based. As to conditions: EGFR/HER-2chimera/#T3-C7 cell lines, EGF stimulated; read-out: HER-2 kinase IC50. On the procedure:
Using the following reagents, supplies, and method, the ability of compounds of the invention to affect the activity of HER-2 in whole cells in an ELISA format can be assigned.
EGFR/HER-2chimera/#T3-C7 cell lines are used for this assay. Choose dishes having 80-90% confluence for the experiment. Collect cells by trypsinization and centrifuge at 1000 rpm at room temperature for 5 minutes.
Resuspend cells in starve medium and count with trypan blue. Only viability above 90% is acceptable. Seed cells in starve medium at a density of 2,500 cells per well, 90 μL per well, in a 96 well microtiter plate. Incubate seeded cells in 5% CO2 at 37° C. overnight. Start the assay two days after seeding.
Samples are diluted directly into a polypropylene plate containing starve-DMEM (non-sterile is okay). This dilution will be 1:10 or greater, depending on the samples being screened. The same amount of DMSO is put into the control wells. […] are then transferred to the cell plate at a 1:10 dilution (10 μL of sample and media into 90 μL of starve media). The final DMSO concentration will be 1% or lower.
Ten samples are put into wells 2-11 of row A of the NUNC 96 well polypropylene plate. These wells contain straight starve-DMEM. For a 1:10 dilution, one would put 10 μL of drug into 90 μL of media. The rest of the wells (including the controls) will have a DMSO/media mixture. The percentage of DMSO in this mixture is determined by the first dilution factor, in this case 1:10. The DMSO concentration is therefore 10%. An equal amount of drug and media from row A is put into row B, containing DMSO and media. The same amount is then taken out and put into row C. This is repeated for all rows. These are 1:2 dilutions. All wells are then transferred to the cell plate at a 1:10 dilution (10 μL of sample and media into 90 μL of starve-DMEM. The final DMSO concentration will be 1% or lower. […]
After a 2 hour incubation with the drug, add prepared EGF ligand to cells at 50 μL per well, for a final concentration of 50 nM. Positive control wells (8) receive the same amount of EGF. […] Incubate at 37° C. for 10 minutes.
Remove drug, EGF, and DMEM by dumping in sink. Wash cells once with PBS.
Transfer HNTG* to cells, 100 μL per well. Place on ice for 5 minutes. Meanwhile, remove blocking buffer from ELISA plate and wash as described above. With a pipette tip securely fitted to a micropipettor, scrape cells from plate and homogenize cell material by repeatedly aspirating and dispensing the HNTG* lysis buffer. Transfer lysate to a coated, blocked, washed ELISA plate. Alternatively, one may use a Costar transfer cartridge to transfer lysate to the ELISA plate. Incubate, shaking, at room temperature for one hour.
Remove lysate by dumping in sink, then wash as described earlier. Transfer freshly diluted anti-phosphotyrosine (anti-Ptyr) antibody (1:3000 in TEST) to ELISA plate, 100 μL per well. Incubate, shaking, at room temperature, for 30 minutes.
Remove anti-Ptyr antibody by dumping in sink, then wash as described earlier. Transfer freshly diluted BIOSOURCE antibody to ELISA plate, (1:8000 in TEST), 100 μL per well. Incubate, shaking, at room temperature for 30 minutes.
Remove BIOSOURCE antibody by dumping in sink, then wash as described earlier. Transfer freshly prepared ABTS/H2O2 solution to ELISA plate, […]. Incubate 5-10 minutes while shaking. Remove any bubbles and if necessary, stop reaction with the addition of 100 μL of 0.2 M HCl per well.
Read assay on Dynatech MR7000 ELISA reader. Test Filter: […]; Reference Filter: […]. A preferred template for the placement of controls in this experiment is provided below: […]

The structures appear in SMILES notation.

T1 sequence (P00533 25-1210): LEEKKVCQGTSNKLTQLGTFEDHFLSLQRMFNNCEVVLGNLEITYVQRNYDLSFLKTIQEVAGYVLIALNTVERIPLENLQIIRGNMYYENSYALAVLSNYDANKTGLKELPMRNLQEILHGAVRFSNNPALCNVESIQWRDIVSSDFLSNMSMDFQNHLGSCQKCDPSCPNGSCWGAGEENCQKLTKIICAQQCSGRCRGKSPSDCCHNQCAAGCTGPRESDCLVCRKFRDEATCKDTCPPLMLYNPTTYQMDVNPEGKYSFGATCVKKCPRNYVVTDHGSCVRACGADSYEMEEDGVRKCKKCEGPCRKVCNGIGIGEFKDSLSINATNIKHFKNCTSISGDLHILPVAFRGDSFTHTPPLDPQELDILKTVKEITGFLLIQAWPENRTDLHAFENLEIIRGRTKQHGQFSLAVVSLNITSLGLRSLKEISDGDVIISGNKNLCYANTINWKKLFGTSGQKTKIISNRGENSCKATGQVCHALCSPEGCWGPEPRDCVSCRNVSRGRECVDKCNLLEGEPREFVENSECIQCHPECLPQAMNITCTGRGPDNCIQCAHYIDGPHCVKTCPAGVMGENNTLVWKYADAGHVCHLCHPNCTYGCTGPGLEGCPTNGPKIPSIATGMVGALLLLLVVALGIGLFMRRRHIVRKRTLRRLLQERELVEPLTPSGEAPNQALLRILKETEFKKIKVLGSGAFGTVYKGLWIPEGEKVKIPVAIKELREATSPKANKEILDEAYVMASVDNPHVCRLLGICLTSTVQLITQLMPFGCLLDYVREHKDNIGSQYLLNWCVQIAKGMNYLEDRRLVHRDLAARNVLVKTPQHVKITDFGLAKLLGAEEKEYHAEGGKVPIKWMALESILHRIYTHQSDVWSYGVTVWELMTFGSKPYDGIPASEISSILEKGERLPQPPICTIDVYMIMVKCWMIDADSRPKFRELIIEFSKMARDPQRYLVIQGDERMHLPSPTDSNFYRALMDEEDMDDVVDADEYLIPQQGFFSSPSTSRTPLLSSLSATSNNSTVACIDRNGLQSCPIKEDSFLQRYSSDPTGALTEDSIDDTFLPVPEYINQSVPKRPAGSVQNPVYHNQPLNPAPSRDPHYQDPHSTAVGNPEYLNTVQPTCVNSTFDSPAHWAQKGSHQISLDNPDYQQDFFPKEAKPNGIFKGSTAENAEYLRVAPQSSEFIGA
T2 sequence (P04626 720-987 limits assumed): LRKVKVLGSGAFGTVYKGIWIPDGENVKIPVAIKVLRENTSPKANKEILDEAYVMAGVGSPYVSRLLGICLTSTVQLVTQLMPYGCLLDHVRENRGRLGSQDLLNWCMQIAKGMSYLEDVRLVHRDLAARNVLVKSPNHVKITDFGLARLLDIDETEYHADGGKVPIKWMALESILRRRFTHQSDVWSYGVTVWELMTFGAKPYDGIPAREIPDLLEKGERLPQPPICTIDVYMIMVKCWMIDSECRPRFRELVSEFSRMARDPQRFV

For the compound `Cc1cc(CCC(=O)N2CCN(C)CC2)[nH]c1/C=C1\C(=O)Nc2ncnc(Nc3ccc(F)c(Cl)c3)c21` [Formula 25], the IC50 on EGFR was determined as 58 nM; on HER-2 it was 11900 nM.
The like results for `CCN(CC)CCNC(=O)c1c(C)[nH]c(/C=C2\C(=O)Nc3ncnc(Nc4ccc(F)c(Cl)c4)c32)c1C` [Formula 28] were, in that order, 210 nM and 160 nM.
As for `Cc1cc(C(=O)NCCN2CCOCC2)[nH]c1/C=C1\C(=O)N(C)c2ncnc(Nc3ccc(F)c(Cl)c3)c21` [Formula 32], the figures for the IC50 at EGFR and at HER-2 were 7140 nM and 18700 nM, respectively.
The like results for `Cc1cc(/C=C2\C(=O)Nc3ncnc(Nc4ccc(F)c(Cl)c4)c32)[nH]c1C(=O)N1CCN(C)CC1` [Formula 35] were, in that order, 400 nM and 590 nM.
In the case of `Cc1cc(CCC(=O)O)[nH]c1/C=C1\C(=O)Nc2ncnc(Nc3ccc(F)c(Cl)c3)c21` [Formula 49], the IC50 at EGFR stood at 5 nM; at HER-2 it was 1800 nM.
The like results for `Cc1[nH]c(/C=C2\C(=O)Nc3ncnc(Nc4ccc(F)c(Cl)c4)c32)c(C)c1CC(=O)O` [Formula 51] were, in that order, 38 nM and 860 nM.

Source of the values: patent US6908930B2, “4-substituted 7-AZA-indolin-2-ones and their use as protein kinase inhibitors” (Sugen, Inc., priority 1999, dated 2005).
